In one experiment the target is T1, human recombinant HDAC6 (Homo sapiens, UniProt Q9UBN7).
T1 construct: purchased Calbiochem Inc. 382180
T1 sequence (Q9UBN7 1-1215): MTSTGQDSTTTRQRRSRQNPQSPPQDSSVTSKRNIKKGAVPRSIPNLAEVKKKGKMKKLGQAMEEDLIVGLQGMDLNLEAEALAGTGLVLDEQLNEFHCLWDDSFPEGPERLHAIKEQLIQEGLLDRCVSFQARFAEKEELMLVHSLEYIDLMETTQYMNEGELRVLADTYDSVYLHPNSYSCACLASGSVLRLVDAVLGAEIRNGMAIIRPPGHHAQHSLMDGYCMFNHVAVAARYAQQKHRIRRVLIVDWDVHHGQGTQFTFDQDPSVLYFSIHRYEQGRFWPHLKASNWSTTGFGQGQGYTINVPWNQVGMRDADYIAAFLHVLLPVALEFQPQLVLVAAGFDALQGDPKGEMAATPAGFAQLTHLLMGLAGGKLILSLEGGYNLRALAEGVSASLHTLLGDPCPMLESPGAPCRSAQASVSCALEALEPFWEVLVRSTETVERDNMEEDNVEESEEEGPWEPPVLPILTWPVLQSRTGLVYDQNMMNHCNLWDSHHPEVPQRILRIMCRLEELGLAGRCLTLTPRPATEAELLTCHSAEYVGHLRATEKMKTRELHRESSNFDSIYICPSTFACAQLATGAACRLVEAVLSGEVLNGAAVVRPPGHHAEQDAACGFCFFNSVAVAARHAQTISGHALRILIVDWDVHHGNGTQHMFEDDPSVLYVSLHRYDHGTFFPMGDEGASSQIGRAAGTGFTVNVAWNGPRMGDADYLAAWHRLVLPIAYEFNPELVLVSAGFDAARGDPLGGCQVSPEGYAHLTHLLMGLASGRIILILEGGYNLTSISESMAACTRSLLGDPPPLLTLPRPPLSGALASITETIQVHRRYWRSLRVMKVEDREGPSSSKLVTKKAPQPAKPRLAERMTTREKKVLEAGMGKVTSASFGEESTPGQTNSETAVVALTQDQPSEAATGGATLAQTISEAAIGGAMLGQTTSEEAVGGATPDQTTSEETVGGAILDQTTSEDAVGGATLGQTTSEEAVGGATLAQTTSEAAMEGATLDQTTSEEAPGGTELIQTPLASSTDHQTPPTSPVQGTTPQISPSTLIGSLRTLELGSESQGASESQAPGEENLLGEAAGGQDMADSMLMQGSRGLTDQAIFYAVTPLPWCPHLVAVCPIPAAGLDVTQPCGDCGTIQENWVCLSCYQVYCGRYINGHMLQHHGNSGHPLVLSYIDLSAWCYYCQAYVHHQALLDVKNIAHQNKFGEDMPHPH
Put plainly: HDAC6 enzyme activity inhibition (HDAC Fluorimetric Drug Discovery Kit). To be noted: for HDAC6 selectivity (fold): HDAC6 over HDAC1; for IC50: human recombinant HDAC6, same protocol as HDAC1. The format is biochemical. An outline of the steps:
(§1)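 Enzyme at 0.3 µg per well was reacted with 10 μM fluorogenic substrate in presence of 5-fold diluted compound, 30° C for 60 min.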

A further experiment concerns the target T2, human recombinant HDAC1 (Homo sapiens, UniProt Q13547).
T2 construct: purchased Enzo Life Science, Inc. BML-SE456
Kind of experiment: HDAC1 enzyme activity inhibition (HDAC Fluorimetric Drug Discovery Kit). Conditions: human recombinant HDAC1, Fluor de Lys substrate, 30° C. 60 minutes; read-out: HDAC1. The format is biochemical. In a few lines:
as §1

T2 sequence (Q13547 whole entry): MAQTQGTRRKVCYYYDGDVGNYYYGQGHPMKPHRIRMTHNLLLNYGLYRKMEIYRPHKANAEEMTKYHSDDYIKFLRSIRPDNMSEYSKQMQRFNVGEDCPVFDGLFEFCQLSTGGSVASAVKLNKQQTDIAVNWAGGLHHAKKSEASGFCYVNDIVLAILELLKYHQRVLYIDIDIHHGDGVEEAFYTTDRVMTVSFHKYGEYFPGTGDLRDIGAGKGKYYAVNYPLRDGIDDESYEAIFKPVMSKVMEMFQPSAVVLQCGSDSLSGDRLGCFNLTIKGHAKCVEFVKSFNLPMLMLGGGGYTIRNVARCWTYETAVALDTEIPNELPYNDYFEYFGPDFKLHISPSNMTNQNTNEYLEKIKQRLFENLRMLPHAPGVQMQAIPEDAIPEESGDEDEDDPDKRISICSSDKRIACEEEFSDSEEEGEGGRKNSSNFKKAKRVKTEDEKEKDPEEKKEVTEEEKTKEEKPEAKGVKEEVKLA

For the molecule `Fc1cc(-c2nnc(C(F)F)o2)ccc1Cn1cc(-c2ccccc2CNC2COC2)nn1` [Compound 4590, N-(2-(1-(4-(5-(difluoromethyl)-1,3,4-oxadiazol-2-yl)-2-fluorobenzyl)-1H-1,2,3-triazol-4-yl)benzyl)oxetan-3-amine], at human recombinant HDAC6, the “HDAC6 selectivity (fold)” value amounted to 308 fold and the IC50 came out at 162 nM. In addition, the IC50 at human recombinant HDAC1 was more than 50000 nM.

`CCN1CCN(c2cc(-c3cn(Cc4ccc(-c5nnc(C(F)F)o5)cn4)nn3)ccn2)CC1` [Compound 4591, 2-(difluoromethyl)-5-(6-((4-(2-(4-ethylpiperazin-1-yl)pyridin-4-yl)-1H-1,2,3-triazol-1-yl)methyl)pyridin-3-yl)-1,3,4-oxadiazole]: on human recombinant HDAC6, the “HDAC6 selectivity (fold)” value was determined as 3546 fold and the IC50 worked out at 14.1 nM. The IC50 on human recombinant HDAC1 is more than 50000 nM.

As for `CC(C)N1CCN(c2cc(-c3cn(Cc4ccc(-c5nnc(C(F)F)o5)cn4)nn3)ccn2)CC1` [Compound 4592, 2-(difluoromethyl)-5-(6-((4-(2-(4-isopropylpiperazin-1-yl)pyridin-4-yl)-1H-1,2,3-triazol-1-yl)methyl)pyridin-3-yl)-1,3,4-oxadiazole], at human recombinant HDAC6, the “HDAC6 selectivity (fold)” value is on record as 3246 fold and the IC50 was 15.4 nM. In addition, the IC50 on human recombinant HDAC1 was more than 50000 nM.

Regarding `FC(F)c1nnc(-c2ccc(Cn3cc(-c4ccnc(N5CCN(C6CC6)CC5)c4)nn3)nc2)o1` [Compound 4593, 2-(6-((4-(2-(4-cyclopropylpiperazin-1-yl)pyridin-4-yl)-1H-1,2,3-triazol-1-yl)methyl)pyridin-3-yl)-5-(difluoromethyl)-1,3,4-oxadiazole], at human recombinant HDAC6, the “HDAC6 selectivity (fold)” value was 2127 fold and the IC50 is 23.5 nM. The IC50 at human recombinant HDAC1 is more than 50000 nM.

As for `FC(F)c1nnc(-c2ccc(Cn3cc(-c4ccnc(N5CCN(C6COC6)CC5)c4)nn3)nc2)o1` [Compound 4594, 2-(difluoromethyl)-5-(6-((4-(2-(4-(oxetan-3-yl)piperazin-1-yl)pyridin-4-yl)-1H-1,2,3-triazol-1-yl)methyl)pyridin-3-yl)-1,3,4-oxadiazole], at human recombinant HDAC6, the “HDAC6 selectivity (fold)” value was determined as 2057 fold and the IC50 is 24.3 nM. Further, at human recombinant HDAC1, the IC50 was more than 50000 nM.

Regarding `CN1Cc2cccc(-c3cn(Cc4ccc(-c5nnc(C(F)F)o5)cn4)nn3)c2C1` [Compound 4595, 2-(difluoromethyl)-5-(6-((4-(2-methylisoindolin-4-yl)-1H-1,2,3-triazol-1-yl)methyl)pyridin-3-yl)-1,3,4-oxadiazole], at human recombinant HDAC6, the “HDAC6 selectivity (fold)” value was 1046 fold and the IC50 came to 47.8 nM. Besides, the IC50 at human recombinant HDAC1 is more than 50000 nM.

Regarding `CCN1Cc2cccc(-c3cn(Cc4ccc(-c5nnc(C(F)F)o5)cn4)nn3)c2C1` [Compound 4596, 2-(difluoromethyl)-5-(6-((4-(2-ethylisoindolin-4-yl)-1H-1,2,3-triazol-1-yl)methyl)pyridin-3-yl)-1,3,4-oxadiazole], the “HDAC6 selectivity (fold)” value at human recombinant HDAC6 came to 782 fold. For the same molecule, the IC50 at human recombinant HDAC6 was 63.9 nM; on human recombinant HDAC1, more than 50000 nM.

Take `CC(C)N1Cc2cccc(-c3cn(Cc4ccc(-c5nnc(C(F)F)o5)cn4)nn3)c2C1` [Compound 4597, 2-(difluoromethyl)-5-(6-((4-(2-isopropylisoindolin-4-yl)-1H-1,2,3-triazol-1-yl)methyl)pyridin-3-yl)-1,3,4-oxadiazole]: the “HDAC6 selectivity (fold)” value at human recombinant HDAC6 stood at 813 fold. Besides, the results for the IC50 at human recombinant HDAC6 and on human recombinant HDAC1 were 61.5 nM and more than 50000 nM, respectively.

Turning to `FC(F)c1nnc(-c2ccc(Cn3cc(-c4cccc5c4CN(C4CCC4)C5)nn3)nc2)o1` [Compound 4598, 2-(6-((4-(2-cyclobutylisoindolin-4-yl)-1H-1,2,3-triazol-1-yl)methyl)pyridin-3-yl)-5-(difluoromethyl)-1,3,4-oxadiazole], on human recombinant HDAC6, the “HDAC6 selectivity (fold)” value is reported as 1108 fold and the IC50 came to 45.1 nM. Besides, on human recombinant HDAC1, the IC50 is more than 50000 nM.

(Values after patent US20230257372A1 (CHONG KUN DANG PHARMACEUTICAL CORP., priority 2020, published 2023).)
